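Here, GI50 denotes the concentration required for 50% inhibition of growth. TGI: concentration producing complete growth inhibition.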
Legend:
Test in all cases: NCI anticancer screen, dose series, 384-well format
[1] = tested on: EKVX NSCLC
[2] = tested on: CCRF-CEM leukemia
[3] = tested on: HOP-62 NSCLC
[4] = tested on: NCI/ADR-RES ovarian
[5] = tested on: NCI-H460 NSCLC
[6] = tested on: T-47D breast
[7] = tested on: MDA-MB-231 breast
[8] = tested on: K-562 leukemia
[9] = tested on: HS 578T breast
[10] = tested on: NCI-H322M lung
[11] = tested on: SNB-75 CNS
[12] = tested on: RPMI-8226 leukemia
[13] = tested on: KM12 colon
[14] = tested on: NCI-H23 lung
[15] = tested on: SNB-19 CNS
[16] = tested on: SK-MEL-2 melanoma
[17] = tested on: SF-539 CNS
[18] = tested on: OVCAR-3 ovarian
[19] = tested on: UO-31 renal
[20] = tested on: UACC-257 melanoma
[21] = tested on: TK-10 renal
[22] = tested on: HT29 colon
[23] = tested on: OVCAR-5 ovarian
[24] = tested on: RXF 393 renal
[25] = tested on: OVCAR-8 ovarian
[26] = tested on: NCI-H522 lung
[27] = tested on: HOP-92 NSCLC
[28] = tested on: LOX IMVI melanoma
[29] = tested on: UACC-62 melanoma
[30] = tested on: SK-OV-3 ovarian
[31] = tested on: MDA-MB-435 melanoma
[32] = tested on: U251 glioblastoma
[33] = tested on: SF-295 CNS
[34] = tested on: SN12C renal
[35] = tested on: HL-60(TB) leukemia
[36] = tested on: COLO 205 colon
[37] = tested on: A498 renal
[38] = tested on: MOLT-4 leukemia
[39] = tested on: HCT-116 colon
[40] = tested on: BT-549 breast
[41] = tested on: SW-620 colon
[42] = tested on: SK-MEL-5 melanoma
[43] = tested on: OVCAR-4 ovarian
[44] = tested on: MCF7 breast
[45] = tested on: MDA-MB-468 breast
[46] = tested on: A549 NSCLC
[47] = tested on: SK-MEL-28 melanoma
[48] = tested on: M14 melanoma
[49] = tested on: HCC-2998 colon
[50] = tested on: SF-268 CNS
[51] = tested on: CAKI-1 renal
[52] = tested on: 786-0 renal
[53] = tested on: NCI-H226 lung
[54] = tested on: IGROV1 ovarian
[55] = tested on: PC-3 prostate
[56] = tested on: MALME-3M melanoma
[57] = tested on: ACHN renal
[58] = tested on: HCT-15 colon
[59] = tested on: DU-145 prostate

Cn1cc(-c2ccc(=O)n(Cc3cccc(-c4ncc(OCCN5CCOCC5)cn4)c3)n2)cn1
GI50 [1]: 39.5 µM | TGI [1]: > 100 µM | GI50 [2]: 21.6 µM | TGI [2]: 57.4 µM | GI50 [3]: 23.7 µM | TGI [3]: 98.6 µM | GI50 [4]: 32.9 µM | TGI [4]: > 100 µM | GI50 [5]: 72 µM | TGI [5]: > 100 µM | GI50 [6]: 18.3 µM | TGI [6]: 72.2 µM | GI50 [7]: > 100 µM | TGI [7]: > 100 µM | GI50 [8]: 35.1 µM | TGI [8]: > 100 µM | GI50 [9]: 97.8 µM | TGI [9]: > 100 µM | GI50 [10]: > 100 µM | TGI [10]: > 100 µM | GI50 [11]: 98.9 µM | TGI [11]: > 100 µM | GI50 [12]: 24.9 µM | TGI [12]: > 100 µM | GI50 [13]: 66.1 µM | TGI [13]: > 100 µM | GI50 [14]: 14.5 µM | TGI [14]: > 100 µM | GI50 [15]: > 100 µM | TGI [15]: > 100 µM | GI50 [16]: > 100 µM | TGI [16]: > 100 µM | GI50 [17]: > 100 µM | TGI [17]: > 100 µM | GI50 [18]: > 100 µM | TGI [18]: > 100 µM | GI50 [19]: > 100 µM | TGI [19]: > 100 µM | GI50 [20]: 55.5 µM | TGI [20]: > 100 µM | GI50 [21]: > 100 µM | TGI [21]: > 100 µM | GI50 [22]: > 100 µM | TGI [22]: > 100 µM | GI50 [23]: > 100 µM | TGI [23]: > 100 µM | GI50 [24]: 56.6 µM | TGI [24]: > 100 µM | GI50 [25]: 61.8 µM | TGI [25]: > 100 µM | GI50 [26]: 62.6 µM | TGI [26]: > 100 µM | GI50 [27]: > 100 µM | TGI [27]: > 100 µM | GI50 [28]: 37.6 µM | TGI [28]: > 100 µM | GI50 [29]: > 100 µM | TGI [29]: > 100 µM | GI50 [30]: > 100 µM | TGI [30]: > 100 µM | GI50 [31]: > 100 µM | TGI [31]: > 100 µM | GI50 [32]: 64.2 µM | TGI [32]: > 100 µM | GI50 [33]: 71.2 µM | TGI [33]: > 100 µM | GI50 [34]: > 100 µM | TGI [34]: > 100 µM | GI50 [35]: 35.8 µM | TGI [35]: 94.6 µM | GI50 [36]: > 100 µM | TGI [36]: > 100 µM | GI50 [37]: > 100 µM | TGI [37]: > 100 µM | GI50 [38]: 18.6 µM | TGI [38]: 37.1 µM | GI50 [39]: 75.5 µM | TGI [39]: > 100 µM | GI50 [40]: 33.8 µM | TGI [40]: > 100 µM | GI50 [41]: > 100 µM | TGI [41]: > 100 µM | GI50 [42]: 16.5 µM | TGI [42]: 36.8 µM | GI50 [43]: 78.3 µM | TGI [43]: > 100 µM | GI50 [44]: 48.6 µM | TGI [44]: > 100 µM | GI50 [45]: 17.7 µM | TGI [45]: 54.6 µM | GI50 [46]: > 100 µM | TGI [46]: > 100 µM | GI50 [47]: > 100 µM | TGI [47]: > 100 µM | GI50 [48]: > 100 µM | TGI [48]: > 100 µM | GI50 [49]: > 100 µM | TGI [49]: > 100 µM | GI50 [50]: > 100 µM | TGI [50]: > 100 µM | GI50 [51]: 82.5 µM | TGI [51]: > 100 µM | GI50 [52]: > 100 µM | TGI [52]: > 100 µM | GI50 [53]: 28.9 µM | TGI [53]: > 100 µM | GI50 [54]: > 100 µM | TGI [54]: > 100 µM | GI50 [55]: 67.8 µM | TGI [55]: > 100 µM | GI50 [56]: > 100 µM | TGI [56]: > 100 µM | GI50 [57]: > 100 µM | TGI [57]: > 100 µM | GI50 [58]: > 100 µM | TGI [58]: > 100 µM | GI50 [59]: > 100 µM | TGI [59]: > 100 µM
